The record followed here is ChEMBL document CHEMBL3045972, “Effect of side-chain alteration on hormonal activity of nonsteroidal estrogen antagonists” (2010).

The target in assay [1] is T1, Estrogen receptor (Rattus norvegicus) (UniProt P06211).
T1 sequence (whole entry): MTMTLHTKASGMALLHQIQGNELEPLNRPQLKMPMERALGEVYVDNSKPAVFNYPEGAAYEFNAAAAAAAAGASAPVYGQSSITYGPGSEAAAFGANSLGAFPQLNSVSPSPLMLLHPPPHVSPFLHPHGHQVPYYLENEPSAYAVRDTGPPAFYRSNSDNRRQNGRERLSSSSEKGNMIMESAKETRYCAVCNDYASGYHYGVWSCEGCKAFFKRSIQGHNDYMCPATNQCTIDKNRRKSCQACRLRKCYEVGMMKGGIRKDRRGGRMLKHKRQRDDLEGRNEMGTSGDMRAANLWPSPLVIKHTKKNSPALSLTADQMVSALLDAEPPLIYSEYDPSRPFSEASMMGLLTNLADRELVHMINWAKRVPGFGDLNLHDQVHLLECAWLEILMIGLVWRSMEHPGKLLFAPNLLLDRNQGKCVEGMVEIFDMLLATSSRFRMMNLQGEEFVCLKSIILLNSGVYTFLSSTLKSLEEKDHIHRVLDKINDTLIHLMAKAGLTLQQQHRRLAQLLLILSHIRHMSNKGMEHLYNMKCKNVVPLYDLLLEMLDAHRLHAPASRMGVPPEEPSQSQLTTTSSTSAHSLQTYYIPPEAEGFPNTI
Nature of the assay: Binding affinity to Charles Foster Rattus norvegicus (rat) uterine 17beta-estradiol receptor cytosolic form relative to estradiol.

Assay [2] relates to Rattus norvegicus. Nature of the assay: Estrogenic activity in Rattus norvegicus (rat) assessed as increase in uterine weight at 3 mg/kg, sc qd after 3 days relative to control. The class given is functional. The note with it: route subcutaneous; for uterine weight increase relative to control at 3 mg/kg: Rattus norvegicus, sc, 72 h, read-out: INH; for uterine weight increase relative to control: 3 mg/kg.

In assay [3] the test system is Rattus norvegicus. Kind of assay: Antiestrogenic activity in Rattus norvegicus Sprague-Dawley (rat) assessed as inhibition of ethynylestradiol-induced uterine weight at 3 mg/kg, po qd administered 3 days measured on day 31 relative to control. The class given is functional. The settings on record: for inhibition in vivo at 3 mg/kg: Rattus norvegicus, Sprague-Dawley, po.

For assay [4], the system named is Rattus norvegicus. Nature of the assay: Estrogenic activity in Rattus norvegicus (rat) assessed as increase in uterine weight at 10 mg/kg, sc qd after 3 days relative to control. The class given is functional. The settings on record: route subcutaneous.
Assay [5] deals with Rattus norvegicus. Nature of the assay: Antiestrogenic activity in Rattus norvegicus Sprague-Dawley (rat) assessed as inhibition of ethynylestradiol-induced uterine weight at 10 mg/kg, po qd administered 3 days measured on day 31 relative to control. The settings on record: for inhibition in vivo at 10 mg/kg: Rattus norvegicus, Sprague-Dawley, po; for inhibition (INH): 10 mg/kg. The format is functional.

SMILES strings stand for the structures.

The molecule `COc1ccc2c(c1)OC(C)(C)[C@H](c1ccccc1)[C@H]2c1ccc(O)cc1` came in with an Activity in assay [1] of 2.1%. Also, the uterine weight increase relative to control at 3 mg/kg in the assay on Rattus norvegicus [2] came to 109%. In addition, the inhibition in vivo at 3 mg/kg with Rattus norvegicus [3] stood at 50%.
With `COc1ccc2c(c1)OC(C)(C)[C@H](c1ccccc1)[C@@H]2c1ccc(OC(C)C(=O)O)cc1` (relative stereo), in the assay with Rattus norvegicus [4], the Activity was 44.2%. Besides, the inhibition in vivo at 10 mg/kg in the assay with Rattus norvegicus [5] turned out to be 3.8%.
For the molecule `COc1ccc2c(c1)OC(C)(C)[C@H](c1ccccc1)[C@@H]2c1ccc(OC(C)C(=O)NN)cc1` (relative stereo), the Activity turned out to be 110.22% in the assay on Rattus norvegicus [4] and 0.011% in assay [1]. The inhibition in vivo at 10 mg/kg in the assay on Rattus norvegicus [5] is 1.07%.
Consider `CCOC(=O)C(C)Oc1ccc([C@@H]2c3ccc(OC)cc3OC(C)(C)[C@H]2c2ccccc2)cc1` (relative stereo) [listing 1 of 2 here], for which the Activity in the assay on Rattus norvegicus [4] is 43.7%. The inhibition in vivo at 10 mg/kg in the assay on Rattus norvegicus [5] is 3.98%.
As to `COc1ccc2c(c1)OC(C)(C)[C@@H](c1ccccc1)[C@@H]2c1ccc(OC(C)C(=O)O)cc1` (relative stereo), the Activity in the assay on Rattus norvegicus [4] (10 mg/kg) is listed as 21.6%. Besides, in the assay with Rattus norvegicus [5], the inhibition in vivo at 10 mg/kg was found to be 10.8%.
Turning to `COc1ccc2c(c1)OC(C)(C)[C@@H](c1ccccc1)[C@@H]2c1ccc(OC(C)C(=O)NN)cc1` (relative stereo) [listing 1 of 2 here], the Activity in the assay with Rattus norvegicus [4] (10 mg/kg) worked out at 101.91%. In addition, the “inhibition (INH)” value in the assay on Rattus norvegicus [5] was 12.14%.
With `COc1ccc2c(c1)OC(C)(C)[C@H](c1ccccc1)[C@@H]2c1ccc(O)cc1` (relative stereo), the Activity in the assay on Rattus norvegicus [4] is 33.6%; in assay [1], less than 0.001%.
On to `CCOC(=O)C(C)Oc1ccc([C@@H]2c3ccc(OC)cc3OC(C)(C)[C@@H]2c2ccccc2)cc1` (relative stereo), for which the Activity in the assay on Rattus norvegicus [4] is reported as 71.58%. Besides, in the assay on Rattus norvegicus [5], the inhibition in vivo at 10 mg/kg is 3.71%.
As for `CCOC(=O)C(C)Oc1ccc([C@@H]2c3ccc(OC)cc3OC(C)(C)[C@H]2c2ccccc2)cc1` (relative stereo) [listing 2 of 2 here], the Activity in assay [1] came out at 0.029%.
The same measure, in the same setting: next, `COc1ccc2c(c1)OC(C)(C)[C@@H](c1ccccc1)[C@@H]2c1ccc(OC(C)C(=O)NN)cc1` (relative stereo) [listing 2 of 2 here]: 0.052%.
For `COc1ccc2c(c1)OC(C)(C)[C@@H](c1ccccc1)[C@@H]2c1ccc(O)cc1` (relative stereo; 1b) [listing 1 of 2 here], in the assay with Rattus norvegicus [2], the “uterine weight increase relative to control” value was 126.83%. For the same molecule, the inhibition in vivo at 3 mg/kg in the assay on Rattus norvegicus [3] was 60%.
Turning to `COc1ccc2c(c1)OC(C)(C)[C@@H](c1ccccc1)[C@@H]2c1ccc(O)cc1` (relative stereo; 1b) [listing 2 of 2 here], in assay [1], the Activity came to 5.42%.
On to `COc1ccc2c(c1)OC(C)(C)[C@@H](c1ccccc1)[C@@H]2c1ccc(O)cc1` (relative stereo; 1c) [listing 1 of 2 here], for which the “uterine weight increase relative to control” value in the assay with Rattus norvegicus [2] was 165%. The “inhibition (INH)” value in the assay with Rattus norvegicus [3] (3 mg/kg) is recorded as 46.11%.
The molecule `COc1ccc2c(c1)OC(C)(C)[C@@H](c1ccccc1)[C@@H]2c1ccc(O)cc1` (relative stereo; 1c) [listing 2 of 2 here] registered an Activity in assay [1] of 15.7%.
As for `CCOC(=O)C(C)Oc1ccc([C@H]2c3ccc(OC)cc3OC(C)(C)[C@@H]2c2ccccc2)cc1` (single isomer, unassigned; (+)), the Activity in the assay with Rattus norvegicus [4] worked out at 0.19%. Also, in the assay with Rattus norvegicus [5], the inhibition in vivo at 10 mg/kg is 14.3%.
As to `COc1ccc2c(c1)OC(C)(C)[C@H](c1ccccc1)[C@H]2c1ccc(OC(C)C(=O)O)cc1` (single isomer, unassigned; (+)), the Activity in the assay with Rattus norvegicus [4] was determined as 6.88%. In the assay with Rattus norvegicus [5], the inhibition in vivo at 10 mg/kg worked out at 16.1%.
Regarding `COc1ccc2c(c1)OC(C)(C)[C@H](c1ccccc1)[C@H]2c1ccc(OC(C)C(=O)NN)cc1` (single isomer, unassigned; (+)), the Activity with Rattus norvegicus [4] was found to be 6.68%; in assay [1], 0.24%. Further, the inhibition in vivo at 10 mg/kg in the assay with Rattus norvegicus [5] was 6.21%.
Consider `CCOC(=O)C(C)Oc1ccc([C@@H]2c3ccc(OC)cc3OC(C)(C)[C@H]2c2ccccc2)cc1` (single isomer, unassigned; (-)), for which the uterine weight increase relative to control at 3 mg/kg in the assay on Rattus norvegicus [2] is 122%. Also, in the assay on Rattus norvegicus [3], the inhibition in vivo at 3 mg/kg came out at 40.6%.
`COc1ccc2c(c1)OC(C)(C)[C@@H](c1ccccc1)[C@@H]2c1ccc(OC(C)C(=O)NN)cc1` (single isomer, unassigned; (-)) [listing 1 of 2 here]: the Activity in the assay on Rattus norvegicus [4] (10 mg/kg) is 155.02%. Moreover, the “inhibition (INH)” value in the assay with Rattus norvegicus [5] was determined as 25.37%.
The molecule `COc1ccc2c(c1)OC(C)(C)[C@@H](c1ccccc1)[C@@H]2c1ccc(OC(C)C(=O)NN)cc1` (single isomer, unassigned; (-)) [listing 2 of 2 here] had an Activity in assay [1] of 0.37%.
With `COc1ccc2c(c1)OC(C)(C)[C@@H](c1ccccc1)[C@@H]2c1ccc(OC(C)C(=O)O)cc1` (stereo in doubt; 3c) [listing 1 of 2 here], the Activity in the assay on Rattus norvegicus [4] (10 mg/kg) was found to be 149%. Also, the “inhibition (INH)” value with Rattus norvegicus [5] is 10%.
For `COc1ccc2c(c1)OC(C)(C)[C@@H](c1ccccc1)[C@@H]2c1ccc(OC(C)C(=O)O)cc1` (stereo in doubt; 3c) [listing 2 of 2 here], in assay [1], the Activity is 0.037%.

As a reminder, the inhibition in vivo is the relative decrease from the control value, in per cent.
